According to patent EP0980241B1 (Pfizer Products Inc., priority 1997, dated 1999):
Values after ≈ are worked out from the molar mass of the structure shown. Structures can show the parent of a compound that is named as a salt.

Tests used:
[1] = Dilution of PEG-400 or polysorbate-80 solution of sertraline base into 0.9% NaCl (precipitation test); assay type: physicochemical; conditions: for Observed Concentration after Dilution in Saline, after 15 min / Observed Concentration after Dilution in Saline, after 2 hr: 1 ml into 15 ml 0.9% NaCl pH 4.2
Protocol: One ml of this test solution was added to 15 ml normal saline (0.9% NaCl, pH 4.2), and was stirred vigorously. […]

[2] = Precipitation studies: sertraline base solution in vehicle added to 0.1 N HCl or phosphate buffered saline pH 5.8; assay type: physicochemical
Protocol: Solution (a) is a simulated gastric fluid, and solution (b) is a simulated intestinal fluid.
PEG-400 is miscible with aqueous media, while Capmul® -MCM and safflower oil are not. One milliliter of the test solution was added to 10 mL of (a) 0.1 N HCl solution and (b) phosphate buffered saline (PBS) pH 5.8 and was stirred vigorously.
• Mobile phase: per liter of mobile phase: 270 mL of tetrahydrofuran, 230 mL of methanol and 400 mL of buffer. The buffer consisted of 25 mM triethylamine phosphate. It was prepared by adding 1.7 mL of phosphoric acid and 3.5 mL of tirethylamine to 1 liter of water.

[3] = not given; remark: listed apart in the source
[4] = in vivo
[5] = known oral immediate-release dosage forms; cited from earlier work
[6] = Chloride-induced gelling of saturated aqueous sertraline salt solutions; assay type: physicochemical
[7] = PEG-400, 50 mgA/ml in vehicle, expected 3.1
[8] = PEG-400, 100 mgA/ml in vehicle, expected 6.25
[9] = Polysorbate-80, 50 mgA/ml in vehicle, expected 3.1
[10] = Polysorbate-80, 100 mgA/ml in vehicle, expected 6.25

## CN[C@H]1CC[C@@H](c2ccc(Cl)c(Cl)c2)c2ccccc21 [Free base, sertraline free base]
capmul-mcm
  Equilibrium solubility in Capmul-®MCM: >50 mgA/ml
Captex 200
  Equilibrium solubility in Captex® 200: >50 mgA/ml
Miglyol 810
  Equilibrium solubility in Migloyol® 810: >50 mgA/ml
Oleic acid
  Equilibrium solubility in Oleic acid: >50 mgA/ml
other
  Equilibrium solubility in Olive oil: >50 mgA/ml
  Equilibrium solubility in Safflower oil: >50 mgA/ml
[1]; [7]
  Observed Concentration after Dilution in Saline, after 15 min: 0.9 mgA/ml
  Observed Concentration after Dilution in Saline, after 2 hr: 2.1 mgA/ml
[1]; [8]
  Observed Concentration after Dilution in Saline, after 15 min: 0.7 mgA/ml
  Observed Concentration after Dilution in Saline, after 2 hr: 1.8 mgA/ml
[1]; PEG-400 solution
  Precipitation upon addition to a NaCl solution: a portion of the sertraline precipitates
[1]; [9]
  Observed Concentration after Dilution in Saline, after 15 min: 3.1 mgA/ml
  Observed Concentration after Dilution in Saline, after 2 hr: 3.1 mgA/ml
[1]; [10]
  Observed Concentration after Dilution in Saline, after 15 min: 6.25 mgA/ml
  Observed Concentration after Dilution in Saline, after 2 hr: 6.25 mgA/ml
[1]; Polysorbate-80 solution
  Precipitation upon addition to a NaCl solution: no precipitation occurs
[2]; Capmul MCM 50 mgA/mL, 1 mL into 10 mL 0.1 N HCl, 15 minutes
  Concentration of sertraline in non-aqueous layer: 44 mgA/ mL
[2]; Capmul MCM 50 mgA/mL, 1 mL into 10 mL 0.1 N HCl, 15 minutes, expected 5.00
  Concentration of sertraline in aqueous layer: 0.38 mgA/ mL
[2]; Capmul MCM 50 mgA/mL, 1 mL into 10 mL 0.1 N HCl, 120 minutes
  Concentration of sertraline in non-aqueous layer: 44.2 mgA/ mL
[2]; Capmul MCM 50 mgA/mL, 1 mL into 10 mL 0.1 N HCl, 120 minutes, expected 5.00
  Concentration of sertraline in aqueous layer: 0.31 mgA/ mL
[2]; Capmul MCM 50 mgA/mL, 1 mL into 10 mL Phosphate buffered saline pH 5.8, 15 minutes
  Concentration of sertraline in non-aqueous layer: 48 mgA/ mL
[2]; Capmul MCM 50 mgA/mL, 1 mL into 10 mL Phosphate buffered saline pH 5.8, 15 minutes, expected 5.00
  Concentration of sertraline in aqueous layer: 0.18 mgA/ mL
[2]; Capmul MCM 50 mgA/mL, 1 mL into 10 mL Phosphate buffered saline pH 5.8, 120 minutes
  Concentration of sertraline in non-aqueous layer: 48.6 mgA/ mL
[2]; Capmul MCM 50 mgA/mL, 1 mL into 10 mL Phosphate buffered saline pH 5.8, 120 minutes, expected 5.00
  Concentration of sertraline in aqueous layer: 0.16 mgA/ mL
[2]; Capmul-MCM vehicle
  precipitation of sertraline: essentially no precipitation
[2]; Capmul-MCM vehicle, 0.1 N HCl or phosphate buffered saline
  portion of sertraline that remains in solution: > 95 % of added amount
[2]; PEG 400 50 mgA/mL, 1 mL into 10 mL 0.1 N HCl, 15 minutes, expected 4.55
  Concentration of sertraline in aqueous layer: 0.6 mgA/ mL
[2]; PEG 400 50 mgA/mL, 1 mL into 10 mL 0.1 N HCl, 120 minutes, expected 4.55
  Concentration of sertraline in aqueous layer: 0.35 mgA/ mL
[2]; PEG 400 50 mgA/mL, 1 mL into 10 mL Phosphate buffered saline pH 5.8, 15 minutes, expected 4.55
  Concentration of sertraline in aqueous layer: 0.16 mgA/ mL
[2]; PEG 400 50 mgA/mL, 1 mL into 10 mL Phosphate buffered saline pH 5.8, 120 minutes, expected 4.55
  Concentration of sertraline in aqueous layer: 0.12 mgA/ mL
[2]; PEG 400 solution into either 0.1 N HCl or phosphate buffered saline
  precipitation of sertraline: precipitation of a large proportion of sertraline
[2]; Safflower oil 50 mgA/mL, 1 mL into 10 mL 0.1 N HCl, 15 minutes
  Concentration of sertraline in non-aqueous layer: 4.8 mgA/ mL
[2]; Safflower oil 50 mgA/mL, 1 mL into 10 mL 0.1 N HCl, 15 minutes, expected 5.00
  Concentration of sertraline in aqueous layer: 0.48 mgA/ mL
[2]; Safflower oil 50 mgA/mL, 1 mL into 10 mL 0.1 N HCl, 120 minutes
  Concentration of sertraline in non-aqueous layer: 3.2 mgA/ mL
[2]; Safflower oil 50 mgA/mL, 1 mL into 10 mL 0.1 N HCl, 120 minutes, expected 5.00
  Concentration of sertraline in aqueous layer: 0.48 mgA/ mL
[2]; Safflower oil 50 mgA/mL, 1 mL into 10 mL Phosphate buffered saline pH 5.8, 15 minutes
  Concentration of sertraline in non-aqueous layer: 45 mgA/ mL
[2]; Safflower oil 50 mgA/mL, 1 mL into 10 mL Phosphate buffered saline pH 5.8, 15 minutes, expected 5.00
  Concentration of sertraline in aqueous layer: 0.19 mgA/ mL
[2]; Safflower oil 50 mgA/mL, 1 mL into 10 mL Phosphate buffered saline pH 5.8, 120 minutes
  Concentration of sertraline in non-aqueous layer: 44.6 mgA/ mL
[2]; Safflower oil 50 mgA/mL, 1 mL into 10 mL Phosphate buffered saline pH 5.8, 120 minutes, expected 5.00
  Concentration of sertraline in aqueous layer: 0.19 mgA/ mL
[2]; safflower oil solution added to phosphate buffered saline
  precipitation of sertraline: little or no precipitation
[2]; safflower oil vehicle, in the presence of 0.1N HCl
  precipitation of sertraline: 81%
physchem; polysorbate-80, organic solvent or mixture
  solubility: ~102 mg/mL (≈ 333 mM)

## CN[C@H]1CC[C@@H](c2ccc(Cl)c(Cl)c2)c2ccccc21 [Hydrochloride, sertraline hydrochloride]
other
  Equilibrium solubility in Olive oil: <0.01 (below detection limit) mgA/ml
  Equilibrium solubility in Safflower oil: <0.01 (below detection limit) mgA/ml
[3]
  Solubility in Polysorbate-80: <14 mgA/ml
physchem; capmul-mcm, organic solvent or mixture, Solubility in Capmul-MCM
  solubility: ~45 mg/mL
physchem; safflower oil, organic solvent or mixture, Solubility in Safflower Oil
  solubility: < 9 mg/mL

## CN[C@H]1CC[C@@H](c2ccc(Cl)c(Cl)c2)c2ccccc21 [sertraline]
[4]
  half-time for absorption: less than 27.7 minutes
[5]
  Tmax: 6 to 7 h

## sertraline acetate
[6]
  appearance of saturated solution at physiological chloride concentrations: thick pasty solid which does not flow

## sertraline lactate
[6]
  appearance of saturated solution at physiological chloride concentrations: thick pasty solid which does not flow
